{"source": "paper PMC11251039", "about": "“Harnessing cholesterol uptake of malaria parasites for therapeutic applications” (EMBO Molecular Medicine, 2024)", "system": "asexual P. falciparum 3D7 wild-type parasites", "assay": "P. falciparum asexual growth inhibition assay (SYBR Safe DNA replication)", "type": "cell-based, Plasmodium falciparum", "set-up": "Figure 5B dose-response source data (growth, replicate values): unit not given here", "protocol": "P. falciparum asexual parasite assays commenced with ring-stage parasites at 1% parasitaemia and 1% haematocrit. 200 nM chloroquine (Sigma C6628) or artesunate (Sigma A3731) was used as a no-growth control. DNA replication (indicating growth) was measured at the specified time using SYBR Safe DNA Gel Stain (Invitrogen 33102) and a fluorescence microplate reader (Smilkstein et al, [2004]; Spry et al, [2013]). […]\nGrowth and Viability Inhibition Assays:\nPlasmodium falciparum Growth Inhibition Assays:\nP. falciparum parasites were maintained under routine culture conditions in red blood cells and RPMI 1640-Hepes with Glutamax, supplemented with 10 mM D-glucose, 480 μM hypoxanthine, 20 μg/mL gentamicin, 0.375% (w/v) AlbuMAXTM II (Thermo Fisher 11021029), and 2.5% v/v heat-inactivated human serum (17). Cultures were maintained at 37 °C […]\nwildtype parasites except for the ring stage survival assay, as specified. Cultures were synchronised with 5% w/v D-sorbitol (18).\nGrowth inhibition was investigated according to methods described by Smilkstein et al. (19) with modifications by Spry et al. (20). Compounds or solvent controls (DMSO, ethanol, or ethyl acetate) were serially diluted 2-fold across flat-bottom 96-well plates. Culture media without compound was used as a negative control. 200 nM chloroquine (Sigma C6628) or artesunate (Sigma A3731) was used as a positive control to determine background fluorescence. The parasitaemia of a culture containing predominantly ring stage parasites was counted by Giemsa smear. The parasitaemia was adjusted to 1% by addition of fresh uRBCs and added to the plate at a final haematocrit of 1%, with 200 µL per well. The plates were incubated at 37 °C under humid microaerophilic conditions. After 24, 48, or 72 hours, the plates were transferred to a -18 °C freezer to stop the assay and lyse cells. Plates were thawed and lysate was mixed 1:1 with SYBR Safe DNA Gel Stain (Invitrogen 33102) (final concentration 1/10,000) diluted in lysis buffer (20 mM TRIS, 5 mM EDTA, 0.008% w/v Saponin, 0.08% w/v Triton-X 100, pH 7.5). Fluorescence was detected at 490 nm excitation/ 520 nm emission on a FLUOstar Optima fluorescence plate reader (BMG Labtech).", "key": {"[1]": {"conditions": "Plasmodium falciparum, 3D7, 72 h; read-out: IC50, P. falciparum asexual growth inhibition"}, "[2]": {"conditions": "Plasmodium falciparum, 3D7; 24 h, starting at ring stages; read-out: IC50, P. falciparum asexual growth inhibition"}}, "note": "Values joined by “and” are separate entries in the source; they are usually repeats but may differ in a detail not shown here. Equal entries are not always repeated. Where two headings read alike, the source gives them in different places.", "data": [{"smiles": "COc1cc(NC(C)CCCNC(=O)CCC(=O)O[C@H]2CC[C@@]3(C)C(=CC[C@H]4[C@@H]5CC[C@H]([C@H](C)CCCC(C)C)[C@@]5(C)CC[C@@H]43)C2)c2ncccc2c1", "note": "(some centres unmarked) [C-3-PQ]", "values": [{"measurement": "P. falciparum asexual growth, percentage of control", "setting": "0.390625000 uM, 24 h, replicate values, source data Fig. 2B; listed as BC64C", "result": "131.7% and 66.76% and 95.56% and 108.4% and 112% and 85% and 101.8% and 112.2% and 92.84%"}, {"measurement": "P. falciparum asexual growth, percentage of control", "setting": "0.781250000 uM, 24 h, replicate values, source data Fig. 2B; listed as BC64C", "result": "150.2% and 111.9% and 88.57% and 84.46% and 114.9% and 73.34% and 95.38% and 91.75% and 80.98%"}, {"measurement": "P. falciparum asexual growth, percentage of control", "setting": "1.562500000 uM, 24 h, replicate values, source data Fig. 2B; listed as BC64C", "result": "126.1% and 129.8% and 105.9% and 128.7% and 121.9% and 90.74% and 123.6% and 79.12% and 103.6%"}, {"measurement": "P. falciparum asexual growth, percentage of control", "setting": "3.125000000 uM, 24 h, replicate values, source data Fig. 2B; listed as BC64C", "result": "126.5% and 121.8% and 108.8% and 133% and 55.06% and 86.31% and 120.7% and 105.6% and 95.15%"}, {"measurement": "P. falciparum asexual growth, percentage of control", "setting": "6.250000000 uM, 24 h, replicate values, source data Fig. 2B; listed as BC64C", "result": "133.8% and 98.67% and 102.2% and 109% and 94.05% and 103.7% and 108.1% and 76.85% and 81.21%"}, {"measurement": "P. falciparum asexual growth, percentage of control", "setting": "12.500000000 uM, 24 h, replicate values, source data Fig. 2B; listed as BC64C", "result": "157.5% and 116.3% and 102.8% and 135.3% and 108.6% and 85.91% and 111.9% and 81.39% and 66.81%"}, {"measurement": "P. falciparum asexual growth, percentage of control", "setting": "25.000000000 uM, 24 h, replicate values, source data Fig. 2B; listed as BC64C", "result": "149.9% and 129.1% and 105.1% and 150.2% and 115.2% and 49.33% and 125.1% and 71.79% and 57.24%"}, {"measurement": "P. falciparum asexual growth, percentage of control", "setting": "50.000000000 uM, 24 h, replicate values, source data Fig. 2B; listed as BC64C", "result": "150.4% and 131.3% and 98.75% and 124.5% and 117.8% and 89.9% and 146.3% and 135.4% and 89.26%"}, {"measurement": "P. falciparum asexual growth, percentage of control", "setting": "100.000000000 uM, 24 h, replicate values, source data Fig. 2B; listed as BC64C", "result": "78.34% and 90.49% and 98.72% and 114.4% and 78.89% and 75.44% and 171.9% and 124.7% and 104.9%"}, {"measurement": "Inhibition of parasite growth", "setting": "24 h", "result": "no inhibition of parasite growth up to 100 µM"}, {"measurement": "IC50", "setting": "[1]", "result": "> 200000", "unit": "nM"}, {"measurement": "IC50", "setting": "[2]", "result": "> 200000", "unit": "nM"}]}, {"smiles": "CC(C)CCC[C@@H](C)[C@H]1CC[C@H]2[C@@H]3CC=C4C[C@@H](OC(=O)CCC(=O)OC(C)C)CC[C@]4(C)[C@H]3CC[C@]12C", "note": "[C-3-link]", "values": [{"measurement": "P. falciparum asexual growth, percentage of control", "setting": "0.781250000 uM, 24 h, replicate values, source data Fig. 2B; listed as GGA3", "result": "138.2% and 69.67% and 108.2% and 127.5% and 114.2% and 69.05% and 145.4% and 89.72% and 93.86%"}, {"measurement": "P. falciparum asexual growth, percentage of control", "setting": "1.562500000 uM, 24 h, replicate values, source data Fig. 2B; listed as GGA3", "result": "130.3% and 104.4% and 98.52% and 110.7% and 113.3% and 87.62% and 145.2% and 92.88% and 49.26%"}, {"measurement": "P. falciparum asexual growth, percentage of control", "setting": "3.125000000 uM, 24 h, replicate values, source data Fig. 2B; listed as GGA3", "result": "128.1% and 110.6% (2×) and 120.7% and 130.3% and 119.8% and 103.2% and 132.9% and 71.34%"}, {"measurement": "P. falciparum asexual growth, percentage of control", "setting": "6.250000000 uM, 24 h, replicate values, source data Fig. 2B; listed as GGA3", "result": "93.75% and 68.17% and 50.04% and 136.5% and 109.3% and 87.77% and 130% and 101.8% and 92.88%"}, {"measurement": "P. falciparum asexual growth, percentage of control", "setting": "12.500000000 uM, 24 h, replicate values, source data Fig. 2B; listed as GGA3", "result": "119.7% and 70.39% and 47.65% and 137.3% and 124.9% and 51.68% and 112.4% and 101.8% and 77.92%"}, {"measurement": "P. falciparum asexual growth, percentage of control", "setting": "25.000000000 uM, 24 h, replicate values, source data Fig. 2B; listed as GGA3", "result": "123.1% and 134.3% and 128.6% and 112.3% and 97.18% and 95.88% and 133.7% and 5.942% and 77.98%"}, {"measurement": "P. falciparum asexual growth, percentage of control", "setting": "50.000000000 uM, 24 h, replicate values, source data Fig. 2B; listed as GGA3", "result": "105.1% and 133.6% and 70.07% and 116% and 103% and 74.44% and 77.73% and 97.2% and 107.5%"}, {"measurement": "P. falciparum asexual growth, percentage of control", "setting": "100.000000000 uM, 24 h, replicate values, source data Fig. 2B; listed as GGA3", "result": "147.4% and 120% and 109% and 100.9% and 90.73% and 81.6% and 95.19% and 71.65% and 81.81%"}, {"measurement": "P. falciparum asexual growth, percentage of control", "setting": "200.000000000 uM, 24 h, replicate values, source data Fig. 2B; listed as GGA3", "result": "125% and 120.9% and 88.35% and 101.9% and 79.2% and 19.96% and 163.3% and 103.1% and 105.4%"}, {"measurement": "Inhibition of parasite growth", "setting": "24 h", "result": "no inhibition of parasite growth up to 200 µM"}, {"measurement": "IC50", "setting": "[1]", "result": "> 200000", "unit": "nM"}, {"measurement": "IC50", "setting": "[2]", "result": "> 200000", "unit": "nM"}]}, {"smiles": "CCN(CC)CCCC(C)Nc1ccnc2cc(Cl)ccc12", "note": "(centres unmarked) [Chloroquine, chloroquine, reference compound]", "values": [{"measurement": "IC50", "setting": "Plasmodium falciparum, 3D7, 24 h, read-out: IC50, P. falciparum asexual growth inhibition", "result": 10.9, "unit": "nM"}, {"measurement": "IC50", "setting": "Plasmodium falciparum, 3D7, 48 h, read-out: IC50, P. falciparum asexual growth inhibition", "result": 9.9, "unit": "nM"}, {"measurement": "IC50", "setting": "Plasmodium falciparum, 3D7, 72 h, read-out: IC50, P. falciparum asexual growth inhibition", "result": 9.7, "unit": "nM"}]}, {"smiles": "CC(C)CCC[C@@H](C)[C@H]1CC[C@H]2[C@@H]3CC=C4C[C@@H](O)CC[C@]4(C)[C@H]3CC[C@]12C", "note": "[Cholesterol, cholesterol]", "values": [{"measurement": "Figure 5B dose-response source data (growth, replicate values)", "setting": "Concentration 0.1953125 uM; individual replicates", "result": "97.65 and 98.85 and 95.16 and 99.46 and 98.26 and 98.24 and 102.6 and 96.06 and 94.45"}, {"measurement": "Figure 5B dose-response source data (growth, replicate values)", "setting": "Concentration 0.390625 uM; individual replicates", "result": "95.8 and 101 and 95.94 and 100.9 and 102.2 and 97.7 and 93.65 and 98.46 and 98.54 and 95.82 and 88.53 and 95.33 and 96.33 and 97.81 and 92.68"}, {"measurement": "Figure 5B dose-response source data (growth, replicate values)", "setting": "Concentration 0.78125 uM; individual replicates", "result": "99.57 and 96.48 and 97.66 and 98.24 and 100.6 and 107.5 (2×) and 107.4 and 98.35 and 96.07 and 96.59 and 98.18 and 96.9 and 98.19 and 100.3 and 96.94 and 95.15 and 100.1 and 95.95 and 95.21 and 98.02 and 100 and 96.51"}, {"measurement": "Figure 5B dose-response source data (growth, replicate values)", "setting": "Concentration 1.5625 uM; individual replicates", "result": "98.13 and 98.43 and 98.36 and 100.5 and 96.82 and 110.3 and 108.8 and 107.2 and 96.68 and 92.68 and 85.1 and 96.36 and 98.17 and 96.8 and 101.5 and 98.35 and 94.77 and 99.77 and 99.63 and 99.09 and 97.58 and 93.8 and 94.68"}, {"measurement": "Figure 5B dose-response source data (growth, replicate values)", "setting": "Concentration 3.125 uM; individual replicates", "result": "99.65 and 95.37 and 96.75 and 101.4 and 107.2 and 106.1 and 106.5 and 104.9 and 98.31 and 99.02 and 98.46 and 95.92 and 100.7 and 98.47 and 104.4 and 98.86 and 101.6 and 91.05 and 95.88 and 95.01 and 101.3 and 96.56 and 97.39"}, {"measurement": "Figure 5B dose-response source data (growth, replicate values)", "setting": "Concentration 200 uM; individual replicates", "result": "102.2 and 101.3 and 99.63"}, {"measurement": "Figure 5B dose-response source data (growth, replicate values)", "setting": "Concentration 400 uM; individual replicates", "result": "106.3 and 99.95 and 99.03 and 90.17"}, {"measurement": "IC50", "setting": "[1]", "result": "> 400000", "unit": "nM"}]}]}
